ChEMBL document CHEMBL5308504, “Tm Shift (DSF) assay results for EUbOPEN Chemogenomics Library” (2023)
Several values for one entry are separate records, joined by “and”; a condition that tells them apart may be missing. Equal values may be shown once.

How the values were obtained:
[1] = molecular target: Fibroblast growth factor receptor 3 (Homo sapiens) (UniProt P22607); settings: Compound concentration 20.0 uM, Protein concentration 2.0 uM, Result type QC Liability
Description: Thermal Shift Assay. Domain: start/stop: P449-E759

Peregrin (Homo sapiens) = molecular target: T1, Peregrin (Homo sapiens) (UniProt P55201); settings: Compound concentration 20.0 uM, Protein concentration 2.0 uM, Result type QC Liability
T1 sequence (whole entry): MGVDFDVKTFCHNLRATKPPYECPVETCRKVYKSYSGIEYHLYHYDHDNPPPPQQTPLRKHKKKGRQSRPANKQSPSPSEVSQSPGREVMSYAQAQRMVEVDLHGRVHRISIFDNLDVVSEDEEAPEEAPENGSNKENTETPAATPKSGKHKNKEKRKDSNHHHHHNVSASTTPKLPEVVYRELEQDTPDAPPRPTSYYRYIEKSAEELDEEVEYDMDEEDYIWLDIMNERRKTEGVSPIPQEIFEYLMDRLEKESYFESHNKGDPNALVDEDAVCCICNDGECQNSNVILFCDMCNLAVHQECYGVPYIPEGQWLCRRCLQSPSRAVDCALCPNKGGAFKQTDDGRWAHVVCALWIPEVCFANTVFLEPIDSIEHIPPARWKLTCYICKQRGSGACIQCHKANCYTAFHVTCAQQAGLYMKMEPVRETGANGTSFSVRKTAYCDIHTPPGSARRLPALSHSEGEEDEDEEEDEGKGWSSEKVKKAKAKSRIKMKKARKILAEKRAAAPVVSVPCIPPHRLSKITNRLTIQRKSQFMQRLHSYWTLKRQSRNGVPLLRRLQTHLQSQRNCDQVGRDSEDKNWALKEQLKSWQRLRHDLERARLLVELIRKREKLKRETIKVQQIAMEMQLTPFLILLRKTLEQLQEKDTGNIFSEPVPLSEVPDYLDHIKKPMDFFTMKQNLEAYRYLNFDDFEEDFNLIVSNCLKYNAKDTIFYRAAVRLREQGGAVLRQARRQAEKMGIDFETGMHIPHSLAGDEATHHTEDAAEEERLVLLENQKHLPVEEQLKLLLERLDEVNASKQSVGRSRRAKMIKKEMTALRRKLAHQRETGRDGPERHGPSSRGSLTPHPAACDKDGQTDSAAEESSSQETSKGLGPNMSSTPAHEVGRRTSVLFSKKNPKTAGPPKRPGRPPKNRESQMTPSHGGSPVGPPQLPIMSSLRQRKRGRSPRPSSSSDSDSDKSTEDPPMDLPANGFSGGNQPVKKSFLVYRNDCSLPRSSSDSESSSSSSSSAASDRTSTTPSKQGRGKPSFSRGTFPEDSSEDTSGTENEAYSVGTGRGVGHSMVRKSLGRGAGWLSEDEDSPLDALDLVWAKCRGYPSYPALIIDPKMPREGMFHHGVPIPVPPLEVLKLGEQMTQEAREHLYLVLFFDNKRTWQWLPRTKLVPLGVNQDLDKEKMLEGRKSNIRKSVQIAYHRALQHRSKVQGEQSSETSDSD

Sequence of Fibroblast growth factor receptor 3 (Homo sapiens) (P22607 23-806 limits assumed): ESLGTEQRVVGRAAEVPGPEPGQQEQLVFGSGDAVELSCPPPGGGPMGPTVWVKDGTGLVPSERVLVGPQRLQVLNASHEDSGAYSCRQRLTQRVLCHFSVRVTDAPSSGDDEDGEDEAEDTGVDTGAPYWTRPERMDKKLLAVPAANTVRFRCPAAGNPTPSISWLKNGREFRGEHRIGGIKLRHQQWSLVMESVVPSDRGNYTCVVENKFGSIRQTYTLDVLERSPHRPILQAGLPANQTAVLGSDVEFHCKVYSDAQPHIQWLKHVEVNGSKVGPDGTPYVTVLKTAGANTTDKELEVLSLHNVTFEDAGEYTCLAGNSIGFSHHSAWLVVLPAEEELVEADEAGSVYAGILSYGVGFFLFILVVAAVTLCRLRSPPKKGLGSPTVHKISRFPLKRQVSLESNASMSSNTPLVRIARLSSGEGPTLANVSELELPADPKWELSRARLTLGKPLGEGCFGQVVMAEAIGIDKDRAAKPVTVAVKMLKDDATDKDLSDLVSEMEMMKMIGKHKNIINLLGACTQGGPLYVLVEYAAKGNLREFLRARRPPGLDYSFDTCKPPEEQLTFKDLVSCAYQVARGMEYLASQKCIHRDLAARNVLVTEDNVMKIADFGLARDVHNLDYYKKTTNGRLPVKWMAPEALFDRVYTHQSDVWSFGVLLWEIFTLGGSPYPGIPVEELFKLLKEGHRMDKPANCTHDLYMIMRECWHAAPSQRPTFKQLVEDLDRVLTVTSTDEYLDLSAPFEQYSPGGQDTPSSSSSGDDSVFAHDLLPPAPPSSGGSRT

Structure (SMILES)	ΔTm [1]	ΔTm (Peregrin (Homo sapiens))
CC(C)(O)[C@H]1CC[C@H](Nc2ccc3ncc(-c4cccc(C(F)(F)F)c4)n3n2)CC1	0.8 °C	3.48 °C
CC1(C)CCC(CN2CCN(c3ccc(C(=O)NS(=O)(=O)c4ccc(NCC5CCOCC5)c([N+](=O)[O-])c4)c(Oc4cnc5[nH]ccc5c4)c3)CC2)=C(c2ccc(Cl)cc2)C1	1.11 °C	-1.4 °C
Cc1cnc(Nc2ccc(C(=O)N3CCN(C)CC3)cc2)nc1N[C@@H]1CCC[C@@H]1C(N)=O	7.25 °C	-1.57 °C
O=C(Nc1cccc(Nc2nccc(Nc3cccc(C(F)(F)F)c3)n2)c1)C1CC1	3.3 °C	0.79 °C
COc1cc2ncnc(Nc3ccc4c(cnn4Cc4ccccc4)c3)c2cc1OC	1.75 °C	-1.65 °C
NC(=O)c1ccc(-c2nc(-c3ccc4c(c3)OCCO4)c(-c3ccccn3)[nH]2)cc1	1.37 °C	0.84 °C
CC[C@@H]1C(=O)N(C)c2cnc(Nc3ccc(C(=O)NC4CCN(C)CC4)cc3OC)nc2N1C1CCCC1	0.55 °C	1.16 °C
Cc1c(N2CCCC2)nc2ccc(Br)cc2c1C(=O)NC[C@H](CCC(=O)O)c1ccccc1Cl	0.24 °C and 1.08 °C	-3.23 °C and -0.94 °C
C=CC(=O)Nc1cccc(C(=O)Nc2ccc(Nc3cc(-c4c(-c5ccc(F)cc5)nc(SC)n4C)ccn3)cc2)c1	-0.43 °C	0.18 °C
Cc1nc2c(cc1F)c(-c1nnc3c(n1)NC(=O)C3(C)C)nn2Cc1cccc(F)c1F	0.5 °C	-2.09 °C
Cc1ncsc1-c1ccc(CNC(=O)[C@@H]2C[C@H](O)CN2C(=O)[C@@H](NC(=O)C2(F)CC2)C(C)(C)C)c(OCCOc2ccc(CN3CCN(c4cc(-c5ccccc5O)nnc4N)CC3)cc2)c1 (relative stereo)	-0.13 °C	4.18 °C
CN1CCN(C(=O)c2ccc(N(C)c3ncc(C(F)(F)F)c(N[C@@H]4CCC[C@@H]4C(N)=O)n3)cc2)CC1	0.46 °C	-2.51 °C
COCCN1CCN(CCn2ccc(Nc3ncc4c(n3)-c3c(nn(C)c3-c3ccccc3)C[C@H]4C)n2)CC1	3.58 °C	-0.48 °C
CN(C)[C@H]1CC[C@H](Nc2ncc3ncnc(Nc4ccc(F)c(Cl)c4)c3n2)CC1	0.8 °C	1.59 °C
COc1cc(C(N)=O)nc(-c2cccc(C#C[C@]3(O)CCN(C)C3=O)c2)c1	0.48 °C	-1.73 °C
CN1C(=O)[C@@H](NC(=O)c2cc(Cc3ccccc3)on2)COc2ccccc21	-2.65 °C	-1.87 °C
COc1c(-c2cn(C3CCC(=O)NC3=O)nn2)csc1C(=O)N1CCCC1 (stereo not drawn)	0.59 °C	-1.52 °C
C=CC1C[C@]1(NC(=O)[C@@H]1C[C@@H](Oc2cc(-c3csc(NC(=O)C(C)C)n3)nc3c(Br)c(OC)ccc23)CN1C(=O)[C@@H](NC(=O)OC1CCCC1)C(C)(C)C)C(=O)O (stereo partly drawn)	1.41 °C	-2.59 °C
Nc1ncc2c(n1)-c1c([nH]c3ccc(C4=CCOCC4)cc13)CCC2	1.34 °C	-2.26 °C
COc1ccc(-c2csc(NC(=O)[C@H]3CCCCN3S(=O)(=O)c3ccc(C)cc3)n2)cc1	0.16 °C	-0.84 °C
O=C(Nc1ccc(C(O)(C(F)(F)F)C(F)(F)F)cc1)c1ccc(C(F)(F)F)cc1	2.93 °C	0.72 °C
c1ccc2c(c1)SCc1c-2[nH]c2ccccc12	0.81 °C	-9.42 °C
CCN1C(=O)c2cc(C)ccc2N(C)c2ncccc21	0.59 °C	-1.83 °C
Cc1c(NC(=O)COc2ccc(Cl)cc2C(=O)c2cc(F)cc(C(F)(F)F)c2)ccc(C(=O)O)c1F	0.45 °C and 3.99 °C	-2.51 °C and -1.17 °C
CCS(=O)(=O)c1ccc(OC)c(Nc2ncc(-c3cccc(F)c3)o2)c1	3.6 °C	-1.63 °C
CCn1c(-c2nonc2N)nc2ccccc21	0.81 °C	-1.24 °C
CC1(C)CCN(C(=O)C2CN(c3c4c(nc5ccnn35)CCNCC4)C2)C1	0.72 °C	-2.26 °C
CCC(C)(C)CC[C@H](NC(=O)N1CCOCC1)C(=O)NC1(C#N)CCN(C)CC1	0.71 °C	-3.19 °C
Cc1cc(C)nc(Nc2ncc(C(=O)NCCc3c(C)[nH]c4ccccc34)cn2)c1	0.85 °C	-2.14 °C
